Values of other authors in PMC7466129, “Solid Lipid Nanoparticles for Duodenum Targeted Oral Delivery of Tilmicosin” (Pharmaceutics, 2020).
In brackets after ≈: the same amount, converted by molar mass.

Columns and labels:
[1] = set-up: method as in PMID 31614726; settings: 100 °C, 30 min
[2] = tested on: Actinobacillus pleuropneumoniae; set-up: method as in PMID 29139136
Mycoplasma = tested on: Mycoplasma; set-up: method as in PMID 29149886

CC[C@H]1OC(=O)C[C@@H](O)[C@H](C)[C@@H](O[C@@H]2O[C@H](C)[C@@H](O)[C@H](N(C)C)[C@H]2O)[C@@H](CCN2C[C@H](C)C[C@H](C)C2)C[C@@H](C)C(=O)/C=C/C(C)=C/[C@@H]1CO[C@@H]1O[C@H](C)[C@@H](O)[C@@H](OC)[C@H]1OC [tilmicosin, Tilmicosin]
saturation solubility in carnauba wax [1]: 50% | saturation solubility in hydrogenated castor oil [1]: 25% | minimum inhibitory concentration (MIC) [2]: 0.5 µg/mL (≈ 0.575 µM) | minimum inhibitory concentration (MIC) (Mycoplasma): ≤ 0.25 µg/mL
